For 3 compounds, pKB results are on record in ChEMBL document CHEMBL1153678, “Bromobenzofurans : a new class of potent, non-peptide antagonists of angiotensin II” (Bioorg Med Chem Lett, 1991).

In this test the target is T1, Type-1 angiotensin II receptor (Oryctolagus cuniculus) (UniProt P34976).
T1 sequence (whole entry): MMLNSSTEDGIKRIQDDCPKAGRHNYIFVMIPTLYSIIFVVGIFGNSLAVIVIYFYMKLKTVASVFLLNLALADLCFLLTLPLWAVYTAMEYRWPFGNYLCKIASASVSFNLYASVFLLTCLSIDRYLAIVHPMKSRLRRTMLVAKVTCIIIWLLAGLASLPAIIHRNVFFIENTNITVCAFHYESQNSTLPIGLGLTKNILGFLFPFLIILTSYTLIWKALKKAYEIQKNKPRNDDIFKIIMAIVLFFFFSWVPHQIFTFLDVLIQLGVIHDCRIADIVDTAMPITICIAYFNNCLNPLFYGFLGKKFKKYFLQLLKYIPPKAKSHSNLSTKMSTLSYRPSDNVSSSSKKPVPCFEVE
Nature of the test: Angiotensin II receptor, type 1 antagonist activity in rabbit isolated thoracic aorta. The class given is functional, tissue-based.

For orientation: pKB means −log10 of the KB, conventionally taken in molar units. A higher pKB goes with a low KB.

Molecules are shown by their SMILES.

Take `CCCCc1nc(Cl)c(C(=O)O)n1Cc1ccc(-c2ccccc2-c2nn[nH]n2)cc1`: the pKB worked out at 10.6.

`CCCCc1nc(Cl)c(CO)n1Cc1ccc(-c2ccccc2C(=O)O)cc1` had a negative logarithm of the KB (pKB) of 6.9.

Compound `CCCCc1nc(Cl)c(CO)n1Cc1ccc(-c2ccccc2-c2nnn[nH]2)cc1` yielded a pKB of 8.4.
